Broadly, the IC50 is the concentration needed to halve the response being measured. As usually defined, the solubility is how much of the substance goes into solution per volume. Lower therefore signals a poorly soluble substance.

The record followed here is publication PMC10111423, “Antimalarial Imidazopyridines Incorporating an Intramolecular Hydrogen Bonding Motif: Medicinal Chemistry and Mechanistic Studies” (ACS Infectious Diseases, 2023).

Data set [1] concerns Chinese hamster ovarian (CHO) cell line. As to the kind of experiment: In vitro cytotoxicity MTT assay. In kind it is cell-based. The settings on record: CHO vs PfNF54. On the procedure: (§1) In vitro cytotoxicity was performed on the Chinese Hamster Ovarian cell line by measuring cellular growth and survival calorimetrically through the MTT assay.[29],[30] The formation of tetrazolium salt was used as a measure of chemosensitivity and growth. (Details of this assay is described in the Supporting Information.) page 19: et al, 1993). The test samples were prepared to a 10 mmol/L stock solution in 100% DMSO. Samples were tested as a suspension if not completely dissolved. Further dilutions to the desired starting concentration were freshly prepared in growth media on each occasion of the experiment. The standard antimalarial drugs chloroquine (CQ) and artesunate (Arts) were used as the reference drug in all experiments. A full dose-response was performed for all compounds […] value). Test samples were tested at a starting concentration of 6mmol/L, which was then serially diluted 2-fold in growth medium to generate the tested concentration range. The same dilution technique was used for all samples. CQ and Arts were tested from a starting concentration of 1μg/mL. The highest concentration of solvent to which the parasites were exposed was <0.1% and has no measurable effect on the parasite viability (data not shown). The assay plate was incubated at 37 °C for 72h in a sealed gas chamber under 3% O2 and 4% CO2 with the balance being N2. After 72h, the wells in the assay plate were gently resuspended, and 15μL from each well was transferred to a duplicate plate containing 100μL of Malstat reagent and 25μL of nitroblue tetrazolium solution in each well. Plates were left to develop for 20 minutes in the dark and then absorbance of each well was quantified using a spectrophotometer at 620nm wavelength. The remaining population of parasites at each concentration of the test compound was determined by comparing the absorbance of each well to the absorbance of a well containing the drug-free control. Survival was plotted against concentration and the IC50 values were obtained using a non-linear dose-response curve fitting analysis via the Dotmatics software platform.2 In vitro Cytotoxicity Assay In vitro cytotoxicity was performed on the Chinese Hamster Ovarian cell line by measuring […] diphenyltetrazolium bromide (MTT) assay.3,4 The formation of tetrazolium salt was used as a measure of chemosensitivity and growth. 2 mg/mL stock solutions of the test compounds were prepared in DMSO and stored at -20 °C until required. The stock solution was subsequently diluted with the assay medium to make up an initial concentration of 100 μg/mL. The initial 100 μg/mL solution is serially diluted 10- S19 page 20: fold to attain six assay concentrations of 100-0.001 μg/mL. […] was used as the reference compound in this assay. The highest concentration of DMSO, which was used as the negative control, had no measurable effect on cell viability. After 44 hours of exposure of the cells to the test compounds, a solution of MTT was added. This was followed by an additional 4 hours of incubation at 37 °C. The assay plates were centrifuged, medium removed, and DMSO was added to the crystals. The amount of formazan was ascertained by measuring the absorbance at 540 nm. GraphPad Prism software was then used to generate IC50 values through a non-linear dose-response curve analysis. β-Hematin Inhibition Assay 20 mM stock solutions of controls and test compounds were made in DMSO. A solution […] was added to every well in columns 1-11 of a 96-well plate. 140 μL of water and 40 μL of 305.5 μM NP-40 were added to column 12 to mediate the formation of beta-hematin. 20 μL of test compounds (20 mM) were added to column 12 and 100 μL of this solution serially diluted to column 2, leaving column 1 blank (0 μM of test compound). 178.8 μL aliquot of hematin stock was suspended in 20 ml of a 1 M acetate buffer at pH 4.9. 100 μL of this hematin suspension was then added into each well, and the plates were incubated for ±5 hrs at 37°C. […]

The nature of data set [2]: In vitro cytotoxicity MTT assay. The data set is classed as cell-based, Chinese hamster. The following applies: Chinese hamster, Chinese hamster ovarian (CHO) cells; MTT assay. As to the method: as §1
On the technique in general: Tetrazolium dyes change colour on reduction, which living cells bring about.

Data set [3] relates to β-hematin. As to the kind of experiment: β-Hematin inhibition assay (BHIA), cell-free NP-40 mediated. In kind it is biochemical. The following applies: mean of n = 3. On the procedure: page 20: fold to attain six assay concentrations of 100-0.001 μg/mL. […] was used as the reference compound in this assay. The highest concentration of DMSO, which was used as the negative control, had no measurable effect on cell viability. After 44 hours of exposure of the cells to the test compounds, a solution of MTT was added. This was followed by an additional 4 hours of incubation at 37 °C. The assay plates were centrifuged, medium removed, and DMSO was added to the crystals. The amount of formazan was ascertained by measuring the absorbance at 540 nm. GraphPad Prism software was then used to generate IC50 values through a non-linear dose-response curve analysis. β-Hematin Inhibition Assay 20 mM stock solutions of controls and test compounds were made in DMSO. A solution […] was added to every well in columns 1-11 of a 96-well plate. 140 μL of water and 40 μL of 305.5 μM NP-40 were added to column 12 to mediate the formation of beta-hematin. 20 μL of test compounds (20 mM) were added to column 12 and 100 μL of this solution serially diluted to column 2, leaving column 1 blank (0 μM of test compound). 178.8 μL aliquot of hematin stock was suspended in 20 ml of a 1 M acetate buffer at pH 4.9. 100 μL of this hematin […] pH 7.4 and 50% pyridine) and 60 μL of acetone were added to all wells. The absorbances of plate wells were recorded at 405 nm on a SpectraMax plate reader. Sigmoidal dose-response curves with variable slopes were fitted to the absorbance data using GraphPad Prism to obtain the IC50 values for each compound. In vitro Microsomal Stability Assay The in vitro microsomal stability assay was performed in duplicate in a 96-well micro titre […] individually in human (pool of 50, mixed gender), rat (pool of 711, male Sprague Dawley) and mouse (pool of 1634, male CD1) liver microsomes (final protein concentration of 0.4 mg/mL; Xenotech, Kansas, USA), suspended in 0.1M phosphate buffer (pH 7.4). Incubations were S20

Data set [4] concerns chloroquine-sensitive (NF54) strain of P. falciparum. As to the kind of experiment: In vitro asexual blood-stage antiplasmodium pLDH assay, NF54 strain. In kind it is cell-based. The following applies: Plasmodium falciparum. On the procedure:
(§2) Compounds were screened against multi-drug-resistant (K1) and sensitive (NF54) strains of P. falciparum in vitro using a parasite lactate dehydrogenase assay (pLDH) (the method is described fully in the Supporting Information). […]
(§3) In vitro Asexual Blood Stage Antiplasmodium Assay
(§4) Parasites were cultured as per the method of Trager and Jensen,1 with modifications. IC50 values were determined using parasite lactate dehydrogenase as a marker for survival (Makler […]
(§5) et al, 1993). The test samples were prepared to a 10 mmol/L stock solution in 100% DMSO.
(§6) Samples were tested as a suspension if not completely dissolved. Further dilutions to the desired starting concentration were freshly prepared in growth media on each occasion of the experiment. The standard antimalarial drugs chloroquine (CQ) and artesunate (Arts) were used as the reference drug in all experiments. A full dose-response was performed for all compounds in a 96-well plate to determine the concentration inhibiting 50% of parasite growth (IC50– value). Test samples were tested at a starting concentration of 6mmol/L, which was then serially diluted 2-fold in growth medium to generate the tested concentration range. The same dilution technique was used for all samples. CQ and Arts were tested from a starting concentration of 1µg/mL. The highest concentration of solvent to which the parasites were exposed was <0.1% and has no measurable effect on the parasite viability (data not shown).
(§7) The assay plate was incubated at 37 °C for 72h in a sealed gas chamber under 3% O2 and 4% CO2 with the balance being N2. After 72h, the wells in the assay plate were gently resuspended, and 15µL from each well was transferred to a duplicate plate containing 100µL of Malstat reagent and 25µL of nitroblue tetrazolium solution in each well. Plates were left to develop for 20 minutes in the dark and then absorbance of each well was quantified using a spectrophotometer at 620nm wavelength.
(§8) The remaining population of parasites at each concentration of the test compound was determined by comparing the absorbance of each well to the absorbance of a well containing […]
(§9) the drug-free control. […]
(§10) The initial 100 µg/mL solution is serially diluted 10-

Data set [5] in a line: Solubility. The following applies: pH 6.5, aqueous buffer. The data set is classed as physicochemical. The source says: Table 1 In Vitro Antiplasmodium Activity, Cytotoxicity, BHIA, and Solubility | column: Solubility pH 6.5, μM
Data set [6] concerns multidrug-resistant (K1) strain of P. falciparum. As to the kind of experiment: In vitro asexual blood-stage antiplasmodium pLDH assay, K1 strain. In kind it is cell-based. The settings on record: Plasmodium falciparum, 72 h, n ≥ 3, read-out: In vitro antiplasmodium activity IC50 PfK1 strain. On the procedure: as §2, §3, §4, §5, §6, §7, §8, §9, §10
Setting [7] is: NF54, pLDH, 72 h, n ≥ 3, read-out: In vitro antiplasmodium activity IC50 PfNF54 strain.

In brackets after ≈: the same amount, converted by molar mass. Where two headings read alike, the source gives them in different places. Some results are limits rather than exact numbers.

Consider `CCN(CCNc1cc2[nH]c(C3CCOC3)nc2cn1)Cc1ccc(Cl)cc1O` (centres unmarked) [Compound 2, 5-Chloro-2-((ethyl(2-((2-(tetrahydrofuran-3-yl)-1H-imidazo[4,5-c]pyridin-6-yl)amino)ethyl)amino)methyl)phenol], for which the “SI (selectivity index) = IC50 CHO/IC50 PfNF54” value in data set [1] is on record as over 29.94. This compound also displayed an IC50 at 44 h in data set [2] of over 50 µM. Also, the IC50 in data set [3] was 225 µM; in data set [4] (setting [7]), 1.67 µM; in data set [6] it was 1.61 µM. Moreover, the solubility in data set [5] was 125 µM (≈ 52 µg/mL).

As for `CCN(CCNc1cc2[nH]c(C3CCOCC3)nc2cn1)Cc1ccc(Cl)cc1O` [Compound 3, 5-Chloro-2-((ethyl(2-((2-(tetrahydro-2H-pyran-4-yl)-1H-imidazo[4,5-c]pyridin-6-yl)amino)ethyl)amino)methyl)phenol], the “SI (selectivity index) = IC50 CHO/IC50 PfNF54” value in data set [1] is reported as over 21.09. The compound further displayed an IC50 at 44 h in data set [2] of over 50 µM. Also, the IC50 is 722 µM in data set [3], 2.37 µM in data set [4] (setting [7]) and 4.19 µM in data set [6]. This compound registered a solubility in data set [5] of 120 µM (≈ 51.6 µg/mL).

As for `CCN(CCNc1cc2[nH]c(C)nc2cn1)Cc1ccc(Cl)cc1O` [Compound 4, 5-Chloro-2-((ethyl(2-((2-methyl-1H-imidazo[4,5-c]pyridin-6-yl)amino)ethyl)amino)methyl)phenol], the “SI (selectivity index) = IC50 CHO/IC50 PfNF54” value in data set [1] is over 19.76. Further, in data set [2], the IC50 at 44 h is over 50 µM. The values for the IC50 in data set [3], in data set [4] (setting [7]) and in data set [6] were 257 µM, 2.53 µM and 4.11 µM, respectively. In data set [5], this compound returned a solubility of 135 µM (≈ 48.6 µg/mL).

Turning to `CCN(CCNc1cc2[nH]c(C3(C(F)(F)F)CC3)nc2cn1)Cc1ccc(Cl)cc1O` [Compound 7, 5-Chloro-2-((ethyl(2-((2-(1-(trifluoromethyl)cyclopropyl)-1H-imidazo[4,5-c]pyridin-6-yl)amino)ethyl)amino)methyl)phenol], the “SI (selectivity index) = IC50 CHO/IC50 PfNF54” value in data set [1] is given as over 29.94. The compound further showed an IC50 at 44 h in data set [2] of over 50 µM. Also, the figures for the IC50 in data set [3], in data set [4] (setting [7]) and in data set [6] were 275 µM, 1.67 µM and 6 µM, respectively. Also, in data set [5], the solubility is 175 µM (≈ 79.4 µg/mL).

Consider `CCN(CCNc1cc2[nH]c(CC3CC3)nc2cn1)Cc1ccc(Cl)cc1O` [Compound 8, 5-Chloro-2-(((2-((2-(cyclopropylmethyl)-1H-imidazo[4,5-c]pyridin-6-yl)amino)ethyl)(ethyl)amino)methyl)phenol], for which the “SI (selectivity index) = IC50 CHO/IC50 PfNF54” value in data set [1] is listed as over 89.29. This compound showed an IC50 at 44 h in data set [2] of over 50 µM. Moreover, the IC50 was 444 µM in data set [3], 0.56 µM in data set [4] (setting [7]) and 6 µM in data set [6]. Moreover, the concentration in solution in data set [5] (solubility) was 185 µM (≈ 74 µg/mL).

Regarding `CCN(CCNc1cc2[nH]c(C3CCC3)nc2cn1)Cc1ccc(Cl)cc1O` [Compound 9, 5-Chloro-2-(((2-((2-cyclobutyl-1H-imidazo[4,5-c]pyridin-6-yl)amino)ethyl)(ethyl)amino)methyl)phenol], the “SI (selectivity index) = IC50 CHO/IC50 PfNF54” value in data set [1] was over 74.63. The IC50 at 44 h in data set [2] is over 50 µM. The IC50 in data set [3] amounted to 128 µM; in data set [4] (setting [7]), 0.67 µM; in data set [6] it was 6 µM. The compound further showed a solubility in data set [5] of 170 µM (≈ 68 µg/mL).

Take `CCN(CCNc1cc2[nH]c(C3CCC(F)(F)CC3)nc2cn1)Cc1ccc(Cl)cc1O` [Compound 12, 5-Chloro-2-(((2-((2-(4,4-difluorocyclohexyl)-1H-imidazo[4,5-c]pyridin-6-yl)amino)ethyl)(ethyl)amino)methyl)phenol]: in data set [2], the IC50 at 44 h was over 50 µM. For the same compound, the IC50 in data set [3] turned out to be 31 µM; in data set [4] (setting [7]) it was 0.93 µM; in data set [6], 3.68 µM. Also, the solubility in data set [5] is under 5 µM.

For the compound `O=[N+]([O-])c1ccc(NCCN(CCNc2cc3[nH]c(-c4cccc(C(F)(F)F)c4)nc3cn2)Cc2ccc(Cl)cc2O)c2nonc12` [Compound 14-NBD, 5-Chloro-2-(((2-((7-nitrobenzo[c][1,2,5]oxadiazol-4-yl)amino)ethyl)(2-((2-(3-(trifluoromethyl)phenyl)-1H-imidazo[4,5-c]pyridin-6-yl)amino)ethyl)amino)methyl)phenol], in data set [4] (setting [7]), the IC50 worked out at 0.049 µM.

With `C[C@H]1[C@H](OC(=O)CCC(=O)O)O[C@@H]2O[C@@]3(C)CC[C@H]4[C@H](C)CC[C@@H]1[C@@]24OO3` [artesunate, reference compound], the IC50 in data set [4] (NF54, controls, strain not stated in footnote, read-out: IC50 of controls in pLDH antiplasmodium assay) was found to be 0.007 µM.

As for `CCN(CC)CCCC(C)Nc1ccnc2cc(Cl)ccc12` (centres unmarked) [chloroquine, reference compound], the IC50 in data set [4] (NF54, read-out: IC50 of controls in pLDH antiplasmodium assay) was 0.012 µM.
